Consider six compounds from patent US8188138B2, “Sulphonylpyrrole hydrochloride salts as histone deacetylases inhibitors” (4SC AG, priority 2005, dated 2012).

Read-outs that look alike come from different tables or passages of the source.

Holding throughout (type): cell-based
Experiment [1] concerns histone H3 hyperacetylation in HeLa cervical carcinoma cells. Kind of experiment: Cellular histone H3 hyperacetylation assay. Particulars: Homo sapiens, 24 h, range stated for the listed group, read-out: Induction of histone H3 hyperacetylation EC50. The text has this: To assess the cellular efficacy of a histone deacetylase inhibitor in vitro, an assay was set up in black clear-bottom 96-well plates and optimized for use on the Cellomics “ArrayScan II” platform for a quantitative calculation of histone acetylation. The protocol uses a polyclonal rabbit antibody, specifically binding to acetylated lysine 23 or, alternatively, acetylated lysine 9+14 of human histone H3 on fixed cells with an Alexa Fluor 488 labeled goat anti rabbit-IgG used for counterstaining (modified from Braunger et al. AACR annual conference 2003, Abstract 4556). 5×10^3 HeLa cervical carcinoma cells/well (ATCC CCL-2) in 200 μl Dulbecco's modified Eagle's medium (DMEM) containing 10% fetal calf serum are seeded at day 1 in Packard view plates and incubated for 24 h under standard cell culture conditions. On day 2, 1 μl test compound (200× final concentration) is added and incubation continued for further 24 h. On day 3, the culture medium is discarded and attached cells fixed for 15 min at room temperature by addition of 100 μl fixation buffer (3.7% v:v formaldehyde in phosphate buffered saline/PBS). After discarding the fixation buffer and one wash with blocking solution (1% BSA, 0.3% Tween 20 in PBS), cells are permeabilized at room temperature by addition of 100 μl/well permeabilization buffer (30.8 mM NaCl, 0.54 mM Na2HPO4, 0.31 mM KH2PO4, 0.1% v:v […]) for 15 min at room temperature. After discarding the permeabilization buffer and washing twice with 100 μl/well blocking solution at room temperature, the 1st antibody (anti-K23 histone H3 antibody, Cell Signaling No. 9674 or, alternatively, anti-K9+14 histone H3 antibody, Calbiochem No. 382158) in blocking solution (50 μl/well) is added. After incubation for 1 h at room temperature, the wells are washed twice at room temperature with 100 μl/well blocking solution before addition of the 2nd antibody (goat-anti-rabbit Alexa Fluor 488; MoBiTec No. A-11008) in blocking solution (50 μl/well). After further incubation for 1 h at room temperature, wells are washed twice with 100 μl/well blocking solution at room temperature. Finally, 100 μl/well PBS are added and image analysis performed on the Cellomics “ArrayScan II” platform. For EC50 determination, the percentage of positive cells showing nuclear fluorescence is determined and EC50 calculation done from concentration-effect curves by means of non-linear regression. For calibration, a positive (reference HDAC inhibitors like SAHA or NVP LBH-589) and a negative control were included.

For experiment [2], the system named is HeLa cervical carcinoma cells. Kind of experiment: Cellular cytotoxicity assay (Alamar Blue), HeLa. Particulars: Homo sapiens, 72 h, range stated for the listed group. The protocol: (§1) The anti-proliferative activity of the histone deacetylase inhibitory compounds as described herein, was evaluated using the following cell lines: HeLa and HeLa—KB (cervical carcinoma), H460 (non small cell lung cancer), A549 (non-small cell lung cancer), MCF7 (breast carcinoma), MCF10A (normal, non tumorigenic breast epithelial), MDA-MB468 (breast carcinoma), MDA-MB435 (breast carcinoma), MDA-MB231 (breast carcinoma), SKBR-3 (breast carcinoma), SKOV-3 (ovarial carcinoma), A-2780 (ovarial carcinoma), RKO (colon carcinoma), HCT-15 (colon carcinoma), HCT-116 (colon carcinoma), PC3 (prostate carcinoma), BPH1 (benign prostate hyperplasia), AsPC1 (pancreatic carcinoma), Cal27 (tongue carcinoma), A-431 (vulva carcinoma), HeclA (endometrial carcinoma), Saos-2 (osteosarcoma), U87MG (glioblastoma), WM266-4 (melanoma), K562 (chronic myeloid carcinoma), EOL1 (acute hypereosinophilic myeloid leukemia), CCRF-CEM and CCRF-CEM VCR1000 (acute lymphoblastic leukemia sensitive and resistant towards Vincristine). For quantification of cellular proliferation/living cells the Alamar Blue (Resazurin) cell viability assay was applied (O'Brien et al. Eur J Biochem 267, 5421-5426, 2000). In this assay Resazurin is reduced to the fluorescent resorufin by cellular dehydrogenase activity, correlating with viable, proliferating cells. The examples were dissolved as 20 mM solutions in dimethylsulfoxide (DMSO) and subsequently diluted in semi-logarithmic steps. Cell lines were seeded at respective density into 96 well flat bottom plates in a volume of 200 μl per well. 24 hours after seeding 1 μl each of the compound dilutions were added into each well of the 96 well plate. Each compound dilution was tested as quadruplicates. Wells containing untreated control cells were filled with 200 μl DMEM medium containing 0.5% v:v DMSO. The cells were then incubated with the substances for 72 hours at 37° C. in a humidified atmosphere containing 5% carbon dioxide. To determine the viability of the cells, 20 μl of an Resazurin solution (Sigma; 90 mg/l) were added. After 4 hours incubation at 37° C. the fluorescence was measured at an extinction of 544 nm and an emission of 590 nm. For the calculation of the cell viability the emission value from untreated cells was set as 100% viability and the emission rates of treated cells were set in relation to the values of untreated cells. Viabilities were expressed as % values. The corresponding IC50 values of the compounds for cytotoxic activity are determined from the concentration-effect curves by means of non-linear regression.

In experiment [3] the test system is broad selection of non-malignant cell lines and fully transformed malignant cancer cell lines. Description: Anti-proliferative activity across cell line panel (Alamar Blue). The note with it: mean over non-malignant and malignant cell lines. How it is done:
as §1

In experiment [4] the test system is MDA-MB468 breast cancer cells. Description: Breast cancer cell differentiation assay (Nile Red, flow cytometry). The note with it: 24 h; for Neutral & phospholipids (%): differentiated cells; for Phospholipids (%): undifferentiated cells. How it is done:
For quantification of MDA-MB468 breast cancer cell differentiation (described by Munster et al. Canc. Res. 61(23), pp 8492, 2001), 1× E6 cells were seeded in 10 cm cell culture dishes and, after cultivation for 24 h, treated with HDI for further 24 h. Finally, cells were collected by trypsination, washed twice with PBS and resuspended in 1 ml of staining solution ([…] Nile Red in PBS). After incubation for at least 5 min at room temperature, cells were analysed by flow cytometry on a FACS Calibur device (Ex 488 nm, Em. at 530 nm/FL-1 and >630 nm/FL-3). From respective histograms the percentage of cells with fluorescence at 650 nm (phospholipids) and 530 nm+650 nm (phospho- and neutral lipids) were calculated. For microscopic analysis, MDA-MB468 cells were cultivated on two-well chamber slides, treated with test compound for 24 h, fixed with 1.5 vol % glutaraldehyde/PBS and finally treated with staining solution. After washing with PBS, cells were analysed by fluorescence microscopy.
The percentage of differentiated cells with neutral and phospholipids as well as undifferentiated cells with phospholipids only are summarized in the table 5.

Experiment [5] has as its system RKO colon carcinoma cells. Kind of experiment: Cell-cycle dependent cytotoxicity, RKO exop21 cell system. Particulars: Homo sapiens, 72 h, range stated for the listed group. How it is done: For determination of cell-cycle dependent cytotoxicity, the RKO exop21 cell system was applied (Schmidt et al. Oncogene 19: 2423-2429, 2000). Briefly, RKO cells with/without p21^waf1 expression (2×10^4 cells/well induced, 6×10^3 cells/well not induced) were treated with the examples for 72 h and metabolic activity quantified as described before. The expression of p21^waf1 was induced by treatment with Pronasterone A, causing a complete proliferation arrest of RKO cells in the G1 and G2 phases of the cell division cycle.

The test system of the next experiment is A549 cell line. Kind of experiment: Combination experiment with Trail in A549. The note with it: example at about its IC50 combined with Trail. How it is done: A549 non-small cell lung cancer, MDA-MB468 breast cancer and […] colorectal cancer cell lines were pretreated with the examples for 4 h before adding the chemotherapeutic agents or Trail and further incubation for 72 h total. The IC50 values of these combinations were determined from concentration-effect curves and compared to IC50 values of cell treated with the anti-cancer agent only.

[6] abbreviates: arrested RKO cells, p21waf1 expressed, read-out: RKO arrested (p21^waf1 expressed) IC50.
Where [7] appears, read: proliferating RKO cells, read-out: RKO proliferating IC50.

A word on the EC50: it is the concentration giving half of the maximal effect. By IC50 is commonly meant the concentration that gives 50% inhibition. As to `O=C(C=Cc1ccn(S(=O)(=O)Cc2ccccc2)c1)NO` [Compound 2, N-Hydroxy-3-(1-phenylmethanesulfonyl-1H-pyrrol-3-yl)-acrylamide], the EC50 in experiment [1] is 2.15 to 51.3 µM. In experiment [2], this compound showed an IC50 of 0.8 to 21.6 µM.

Regarding `CN(C)c1ccc(S(=O)(=O)n2ccc(/C=C/C(=O)NO)c2)cc1` [Compound 4, (E)-3-[1-(4-Dimethylamino-benzenesulfonyl)-1H-pyrrol-3-yl]-N-hydroxy-acrylamide], in experiment [1], the EC50 fell in the range of 2.15 to 51.3 µM. Further, the IC50 in experiment [2] was 0.8 to 21.6 µM.

`Nc1ccccc1NC(=O)/C=C/c1ccn(S(=O)(=O)c2ccc(-c3ccccc3)cc2)c1` [Compound 7, (E)-N-(2-Amino-phenyl)-3-[1-(biphenyl-4-sulfonyl)-1H-pyrrol-3-yl]-acrylamide]: the EC50 in experiment [1] is 2.15 to 51.3 µM. This compound also displayed an IC50 in experiment [2] of 0.8 to 21.6 µM.

For the compound `CN(CCc1cc2ccccc2[nH]1)Cc1ccc(S(=O)(=O)n2ccc(/C=C/C(=O)NO)c2)cc1` [Compound 9, (E)-N-Hydroxy-3-(1-[4-(([2-(1H-indol-2-yl)-ethyl]-methyl-amino)-methyl)-benzenesulfonyl]-1H-pyrrol-3-yl)-acrylamide], the IC50 in experiment [3] was 3.7 µM; in experiment [5] (setting [6]), 0.45 to 15 µM; in experiment [5] (setting [7]), 0.15 to 5.1 µM; in experiment [2], 0.07 to 5 µM. Moreover, the “Neutral & phospholipids (%)” value is reported as 71.2% in experiment [4] (3 μM) and 64.6% in experiment [4] (6 μM). Moreover, the “Phospholipids (%)” value in experiment [4] (3 μM) turned out to be 25.3%; in experiment [4] (6 μM), 27.9%. Besides, the “Effect of combination with Trail” value in the experiment on A549 cell line is given as “synergism is highly likely”.

In the case of `CN(C)Cc1ccc(S(=O)(=O)n2ccc(/C=C/C(=O)NO)c2)cc1` [Compound 10, (E)-3-[1-(4-Dimethylaminomethyl-benzenesulfonyl)-1H-pyrrol-3-yl]-N-hydroxy-acrylamide], the half-maximal inhibitory concentration (IC50) in experiment [3] is 4.6 µM; in experiment [5] (setting [6]), 0.45 to 15 µM; in experiment [5] (setting [7]), 0.15 to 5.1 µM; in experiment [2], 0.07 to 5 µM. Besides, the “Neutral & phospholipids (%)” value in experiment [4] (2 μM) is 55.5%; in experiment [4] (5 μM), 70.2%. Besides, the “Phospholipids (%)” value in experiment [4] (2 μM) was 41.6%; in experiment [4] (5 μM), 25.2%. Further, in the experiment with A549 cell line, the “Effect of combination with Trail” value is reported as “synergism is highly likely”.

As to `O=C(/C=C/c1ccn(S(=O)(=O)c2ccc(-c3ccccn3)s2)c1)NO` [Compound 24, (E)-N-Hydroxy-3-[1-(5-pyridin-2-yl-thiophene-2-sulfonyl)-1H-pyrrol-3-yl]-acrylamide], the IC50 in experiment [3] was 0.57 µM; in experiment [5] (setting [6]), 0.45 to 15 µM; in experiment [5] (setting [7]), 0.15 to 5.1 µM; in experiment [2], 0.07 to 5 µM. Also, the “Neutral & phospholipids (%)” value in experiment [4] (0.8 μM) turned out to be 67.3%. Also, the “Phospholipids (%)” value in experiment [4] (0.8 μM) is recorded as 27.9%. Further, in experiment [1], the half-maximal effective concentration (EC50) lay in the range of 0.08 to 16 µM. The “Effect of combination with Trail” value with A549 cell line is on record as “synergism is highly likely”.
